Test results reported in ChEMBL document CHEMBL1142920, “Second generation of 5-ethenylbenzofuroxan derivatives as inhibitors of Trypanosoma cruzi growth: synthesis, biological evaluation, and structure-activity relationships” (Bioorg Med Chem, 2007).

Tests used:
Trypanosoma cruzi [1] = assay: Antitrypanosomatid activity against Trypanosoma cruzi Tulahuen 2 epimastigotes assessed as reduction of growth after 5 days; type: functional, organism-based; conditions: Tulahuen 2, 120 h
Trypanosoma cruzi [2] = assay: Antitrypanosomatid activity against Trypanosoma cruzi Y epimastigotes assessed as reduction of growth after 5 days; type: functional, organism-based; conditions: 120 h
Trypanosoma cruzi [3] = assay: Antitrypanosomatid activity against Trypanosoma cruzi CL Brener epimastigotes assessed as reduction of growth after 5 days; type: functional, organism-based; conditions: 120 h
THP-1 = assay: Cytotoxicity against human THP1 cells assessed as reduction of cell viability after 48 hrs; type: cell-based; conditions: THP-1, 48 h
[4] = Ratio of IC50 for human THP1 cells to IC50 for Trypanosoma cruzi Tulahuen 2 epimastigotes; type: functional, THP-1
[5] = Ratio of IC50 for human THP1 cells to IC50 for Trypanosoma cruzi CL Brener epimastigotes; type: functional, THP-1
[6] = Ratio of IC50 for human THP1 cells to IC50 for Trypanosoma cruzi Y epimastigotes; type: functional, THP-1

Row | Compound | IC50 (Trypanosoma cruzi [1]) [µM] | IC50 (Trypanosoma cruzi [2]) [µM] | IC50 (Trypanosoma cruzi [3]) [µM] | IC50 (THP-1) [µM] | Ratio IC50 [4] | Ratio IC50 [5] | Ratio IC50 [6]
1 | COC(=O)/C=C/c1ccc2c(c1)no[n+]2[O-] | > 25 | – | – | – | – | – | –
2 | CN(C/C=C/C#CC(C)(C)C)Cc1cccc2ccccc12 [TERBINAFINE] | – | – | – | – | – | 7.8 | 7.4
3 | O=[N+]([O-])c1ccccc1/C=C/c1ccc2c(c1)no[n+]2[O-] | 26.4 | – | 11.1 | – | – | – | –
4 | CC(=O)N1CCN(c2ccc(OCC3COC(Cn4ccnc4)(c4ccc(Cl)cc4Cl)O3)cc2)CC1 (stereo not given) [KETOCONAZOLE] | – | – | – | – | 4.4 | 8.8 | 4.5
5 | O=[N+]([O-])c1ccccc1/C=C\c1ccc2c(c1)no[n+]2[O-] | 24.4 | – | 13.7 | – | – | – | –
6 | O=[N+]([O-])c1ccc(/C=C/c2ccc3c(c2)no[n+]3[O-])s1 | 6 | 4.5 | 3.5 | – | – | – | –
7 | [O-][n+]1onc2cc(/C=C/c3ccccc3)ccc21 | – | – | – | 149 | – | – | –
8 | [O-][n+]1onc2cc(/C=C/C3CCCCC3)ccc21 | 13.6 | – | – | – | – | – | –
9 | [O-][n+]1onc2cc(/C=C/c3ccc(Cl)cc3)ccc21 | – | – | – | > 200 | – | – | –
10 | CCCC/C=C/c1ccc2c(c1)no[n+]2[O-] | 19.7 | – | 12.8 | – | – | – | –
11 | [O-][n+]1onc2cc(/C=C\c3ccc(Cl)cc3)ccc21 | – | – | – | 97 | – | – | –
12 | [O-][n+]1onc2cc(/C=C\c3ccccc3)ccc21 | – | – | – | – | 8.9 | 4 | 7
13 | [O-][n+]1onc2cc(C=Cc3ccc4c(c3)OCO4)ccc21 | – | – | – | 81 | – | – | –
14 | [O-][n+]1onc2cc(/C=C/c3ccc(C(F)(F)F)cc3)ccc21 | – | 10 | 4.5 | – | – | – | –
15 | [O-][n+]1onc2cc(/C=C/c3cccs3)ccc21 | 0.6 | 12.2 | 15 | – | – | – | –
16 | C=Cc1ccc2c(c1)no[n+]2[O-] | > 25 | – | – | – | – | – | –

The next lines start with results.

Row | IC50 (Trypanosoma cruzi [1]) [µM] | IC50 (Trypanosoma cruzi [2]) [µM] | IC50 (Trypanosoma cruzi [3]) [µM] | Compound | IC50 (THP-1) [µM] | Ratio IC50 [4] | Ratio IC50 [5] | Ratio IC50 [6]
17 | 15 | 24 | – | [O-][n+]1onc2cc(/C=C/c3ccncc3)ccc21 | – | – | – | –
18 | > 25 | > 25 | > 25 | C(=C/c1ccc2nonc2c1)/c1ccc2c(c1)OCO2 | > 400 | <40 | <40 | <40
19 | 8 | 8.5 | 5 | COc1ccc(/C=C/c2ccc3c(c2)no[n+]3[O-])cc1 | – | – | – | –
20 | 15.7 | 22 | 4.4 | CN(C)c1ccc(/C=C/c2ccc3c(c2)no[n+]3[O-])cc1 | > 400 | >25 | >90 | >18
21 | > 25 | – | – | N#Cc1ccc(/C=C\c2ccc3c(c2)no[n+]3[O-])cc1 | – | – | – | –
22 | 10.2 | 25 | 22.5 | [O-][n+]1onc2cc(/C=C/c3ccc(O)cc3)ccc21 | – | – | – | –
23 | > 25 | – | – | [O-][n+]1onc2cc(/C=C\c3ccc4nonc4c3)ccc21 | – | – | – | –
24 | > 25 | – | – | O=C(O)c1ccc(/C=C/c2ccc3c(c2)no[n+]3[O-])cc1 | – | – | – | –
25 | > 25 | – | > 25 | CN(C)c1ccc(/C=C/c2ccc3nonc3c2)cc1 | – | – | – | –
26 | 8.7 | 5.5 | 2.5 | [O-][n+]1onc2cc(/C=C/c3ccc(Br)cc3)ccc21 | – | – | – | –
27 | 24 | – | – | CC(=O)Nc1ccc(/C=C\c2ccc3c(c2)no[n+]3[O-])cc1[N+](=O)[O-] | – | – | – | –
28 | – | 13.5 | 10.5 | O=[N+]([O-])c1ccc(/C=C\c2ccc3c(c2)no[n+]3[O-])cc1 | – | – | – | –
29 | 2.9 | 8.5 | 9 | [O-][n+]1onc2cc(/C=C\c3ccc4c(c3)OCO4)ccc21 | 120 | 41.4 | 13.3 | 14.1
30 | > 25 | – | – | N#Cc1ccc(/C=C/c2ccc3c(c2)no[n+]3[O-])cc1 | – | – | – | –
31 | > 25 | > 25 | > 25 | C(=C\c1ccc2nonc2c1)/c1ccc2c(c1)OCO2 | – | – | – | –
32 | 5.3 | 7.3 | 9 | [O-][n+]1onc2cc(/C=C/c3ccc4c(c3)OCO4)ccc21 | 220 | 41.5 | 24.4 | 30.1
33 | – | 9 | 7.5 | [O-][n+]1onc2cc(C=Cc3ccc(Cl)cc3)ccc21 | 66.7 | 15.5 | 8.9 | 7.4
34 | 2.5 | 7.5 | 10 | [O-][n+]1onc2cc(/C=C/c3cccc(F)c3)ccc21 | – | – | – | –
35 | > 25 | – | – | O=C(O)c1ccc(/C=C\c2ccc3c(c2)no[n+]3[O-])cc1 | – | – | – | –
